Measurements: ChEMBL document CHEMBL1649266, “Emergence of an Enterobacter hormaechei strain with reduced susceptibility to tigecycline under tigecycline therapy” (2009)
In brackets after ≈: the same amount, converted by molar mass.

Experiments:
Format in all cases: functional
[1] = system: Enterobacter hormaechei; test: Antibacterial activity against Enterobacter hormaechei isolate UCN62
[2] = system: Enterobacter cloacae; test: Antibacterial activity against Enterobacter cloacae UCN63 by broth microdilution method after 3 weeks of treatment; conditions: UCN63, 504 h
[3] = system: Enterobacter cloacae; test: Antibacterial activity against Enterobacter cloacae UCN63 by Etest after 3 weeks of treatment; conditions: UCN63, 504 h
[4] = system: Enterobacter cloacae; test: Antibacterial activity against Enterobacter cloacae UCN62 by broth microdilution method
[5] = system: Enterobacter cloacae; test: Antibacterial activity against Enterobacter cloacae UCN62 by Etest
[6] = system: Enterobacter hormaechei; test: Antibacterial activity against Enterobacter hormaechei isolate UCN63 after 3 weeks of treatment

| Molecule | MIC [1] [µg/mL] | MIC [2] [µg/mL] | MIC [3] [µg/mL] | MIC [4] [µg/mL] | MIC [5] [µg/mL] | MIC ([6]; isolate UCN63, 504 h) [µg/mL] | MIC [6] [µg/mL] |
| --- | --- | --- | --- | --- | --- | --- | --- |
| CN(C)c1cc(NC(=O)CNC(C)(C)C)c(O)c2c1C[C@H]1C[C@H]3[C@H](N(C)C)C(O)=C(C(N)=O)C(=O)[C@@]3(O)C(O)=C1C2=O [TIGECYCLINE] | 2 (≈ 3.41 µM) | 4 (≈ 6.83 µM) | 3 (≈ 5.12 µM) | 2 (≈ 3.41 µM) | 1 (≈ 1.71 µM) | 4 (≈ 6.83 µM) |  |
| O=C(O)c1cn(C2CC2)c2cc(N3CCNCC3)c(F)cc2c1=O [CIPROFLOXACIN] | > 16 |  |  |  |  | > 16 |  |
| GENTAMICIN | > 32 |  |  |  |  |  | > 32 |
| NCC[C@H](O)C(=O)N[C@@H]1C[C@H](N)[C@@H](O[C@H]2O[C@H](CN)[C@@H](O)[C@H](O)[C@H]2O)[C@H](O)[C@H]1O[C@H]1O[C@H](CO)[C@@H](O)[C@H](N)[C@H]1O [AMIKACIN] | 4 (≈ 6.83 µM) |  |  |  |  | 8 (≈ 13.7 µM) |  |
| C[C@@H](O)[C@H]1C(=O)N2C(C(=O)O)=C(SCCNC=N)C[C@H]12 [IMIPENEM ANHYDROUS] | 1 (≈ 3.34 µM) |  |  |  |  | 1 (≈ 3.34 µM) |  |
| CO/N=C(\C(=O)N[C@@H]1C(=O)N2C(C(=O)O)=C(COC(C)=O)CS[C@H]12)c1csc(N)n1 [CEFOTAXIME] | > 64 |  |  |  |  | > 64 |  |
